Experimental data taken from patent US9173392B2, “Emulsifiable concentrate” (priority 2010, dated 2015).

Key:
[1] = Determination of VOC content (percentage weight loss of solvent aliquot on heating); assay type: physicochemical; conditions: 10 mg aliquot, furnace 35° C. raised 5° C. per minute, held isothermally at 115° C.
Procedure: A series of solvents are evaluated to determine a content of volatile organic compounds (VOCs) and suitability for use in this invention. More specifically, the 1,2-cyclohexanedicarboxylic acid diisononyl ester (Hexamoll® Dinch) of this invention is evaluated as Solvent 1. Twelve additional comparative solvents (Comparative Solvents 1-12) are also evaluated.
After addition of the aliquots to the pans, the pans are placed in a furnace at 35° C. The temperature of the furnace is then raised at a rate of 5° C. per minute and held isothermally at 115° C. When mass loss stabilizes at less than 0.5% for 5 minutes, the temperature is then held at 115° C. for an additional 15 minutes. Total run times average about 80 minutes. The results of the VOC content evaluations are set forth in Table 1 below wherein all values represent percentage weight loss of the aliquot and correlate to approximate VOC content.

[2] = Active component solubility in solvents at 10° C. and 54° C. (visual, HPLC for undissolved samples); conditions: for Approximate Percent (%) Solubility Determination of Active Components in Solvents (Malathion At 10° C.) / Approximate Percent (%) Solubility Determination of Active Components in Solvents (Malathion At 54° C.): 20 g Malathion in 10 g solvent; for Approximate Percent (%) Solubility Determination of Active Components in Solvents (Malathion At 10° C.) / Approximate Percent (%) Solubility Determination of Active Components in Solvents (Metolachlor At 10° C.): about two weeks at 10° C.; for Approximate Percent (%) Solubility Determination of Active Components in Solvents (Malathion At 10° C.) / Approximate Percent (%) Solubility Determination of Active Components in Solvents (Malathion At 54° C.) / Approximate Percent (%) Solubility Determination of Active Components in Solvents (Metolachlor At 10° C.) / Approximate Percent (%) Solubility Determination of Active Components in Solvents (Metolachlor At 54° C.): totally soluble = no particles visually detectable; for Approximate Percent (%) Solubility Determination of Active Components in Solvents (Malathion At 54° C.) / Approximate Percent (%) Solubility Determination of Active Components in Solvents (Metolachlor At 54° C.): about two weeks at 54° C.; for Approximate Percent (%) Solubility Determination of Active Components in Solvents (Metolachlor At 10° C.) / Approximate Percent (%) Solubility Determination of Active Components in Solvents (Metolachlor At 54° C.): 20 g Metolachlor in 10 g solvent; for miscible in the Solvent 1 up to: active component in Solvent 1 (Examples 1-3)

Compound	% Total Weight Loss = VOC Content [1] [%]	Approximate Percent (%) Solubility Determination of Active Components in Solvents (Malathion At 10° C.) [2]	Approximate Percent (%) Solubility Determination of Active Components in Solvents (Malathion At 54° C.) [2]	Approximate Percent (%) Solubility Determination of Active Components in Solvents (Metolachlor At 10° C.) [2]	Approximate Percent (%) Solubility Determination of Active Components in Solvents (Metolachlor At 54° C.) [2]	miscible in the Solvent 1 up to [2]
CC1COC(=O)O1 (stereo not shown) [Comparative Solvent 5, propylene carbonate]	100	Totally Soluble	Totally Soluble	Totally Soluble	Totally Soluble	
CC(O)CO (stereo not shown) [Comparative Solvent 7, propylene glycol]	100	Totally Soluble	Totally Soluble	Totally Soluble	Totally Soluble	
COC(=O)CCCCC(=O)OC [Comparative Solvent 10, dimethyl adipate]	100	Totally Soluble	Totally Soluble	Totally Soluble	Totally Soluble	
CCOC(=O)CC(SP(=S)(OC)OC)C(=O)OCC (stereo not shown) [Malathion]						approximately 66 weight percent
CCc1cccc(C)c1N(C(=O)CCl)C(C)COC (stereo not shown) [Metolachlor]						approximately 66 weight percent
CC(C)CCCCCCOC(=O)C1CCCCC1C(=O)OCCCCCCC(C)C (stereo not shown) [Solvent 1, 1,2-cyclohexanedicarboxylic acid diisononyl ester]	0.33	Totally Soluble	Totally Soluble	Totally Soluble	Totally Soluble	
